Measurements as given in the supplement of paper PMC10307832.

How the values were obtained:
Assay in all cases: relative viability (nuclei count vs DMSO), 5 days (fraction); higher = more cells survive
Bexarotene + Navitoclax = compound: C=C(c1ccc(C(=O)O)cc1)c1cc2c(cc1C)C(C)(C)CCC2(C)C [Bexarotene] + CC1(C)CCC(c2ccc(Cl)cc2)=C(CN2CCN(c3ccc(C(=O)NS(=O)(=O)c4ccc(N[C@H](CCN5CCOCC5)CSc5ccccc5)c(S(=O)(=O)C(F)(F)F)c4)cc3)CC2)C1 [Navitoclax] (partner 0.5 µM)
How it was run: (§1)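 Lung cancer cell lines in 1536-well plates were dosed by pin tool the day after seeding, either with one drug alone or with a fixed anchor-drug dose plus five library-drug doses (not always all listed) in √10 steps. After 5 days, cells were fixed and their nuclei stained in one step (final 0.05% Triton X-100, 1% formaldehyde, 1 ug/ml Hoechst), then counted on 4× images. Relative viability is the nuclei count in treated wells divided by that in vehicle wells. Values are medians of duplicate plates.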

Bexarotene + Luminespib = compound: C=C(c1ccc(C(=O)O)cc1)c1cc2c(cc1C)C(C)(C)CCC2(C)C [Bexarotene] + CCNC(=O)c1noc(-c2cc(C(C)C)c(O)cc2O)c1-c1ccc(CN2CCOCC2)cc1 [Luminespib] (partner 0.01 µM)
How it was run: as §1

Bexarotene + Foretinib = compound: C=C(c1ccc(C(=O)O)cc1)c1cc2c(cc1C)C(C)(C)CCC2(C)C [Bexarotene] + COc1cc2c(Oc3ccc(NC(=O)C4(C(=O)Nc5ccc(F)cc5)CC4)cc3F)ccnc2cc1OCCCN1CCOCC1 [Foretinib] (partner 0.25 µM)
How it was run: as §1

Bexarotene + Linsitinib = compound: C=C(c1ccc(C(=O)O)cc1)c1cc2c(cc1C)C(C)(C)CCC2(C)C [Bexarotene] + C[C@]1(O)C[C@@H](c2nc(-c3ccc4ccc(-c5ccccc5)nc4c3)c3c(N)nccn32)C1 [Linsitinib] (partner 1 µM)
How it was run: as §1

| Cell Line | relative viability (Bexarotene + Navitoclax; first compound 0.08 µM) | relative viability (Bexarotene + Navitoclax; first compound 0.253 µM) | relative viability (Bexarotene + Navitoclax; first compound 0.8 µM) | relative viability (Bexarotene + Navitoclax; first compound 2.53 µM) | relative viability (Bexarotene + Navitoclax; first compound 8 µM) | relative viability (Bexarotene + Luminespib; first compound 0.08 µM) | relative viability (Bexarotene + Luminespib; first compound 0.253 µM) | relative viability (Bexarotene + Luminespib; first compound 0.8 µM) | relative viability (Bexarotene + Luminespib; first compound 2.53 µM) | relative viability (Bexarotene + Luminespib; first compound 8 µM) | relative viability (Bexarotene + Foretinib; first compound 0.08 µM) | relative viability (Bexarotene + Foretinib; first compound 0.253 µM) | relative viability (Bexarotene + Foretinib; first compound 0.8 µM) | relative viability (Bexarotene + Foretinib; first compound 2.53 µM) | relative viability (Bexarotene + Foretinib; first compound 8 µM) | relative viability (Bexarotene + Linsitinib; first compound 0.08 µM) | relative viability (Bexarotene + Linsitinib; first compound 0.253 µM) | relative viability (Bexarotene + Linsitinib; first compound 0.8 µM) | relative viability (Bexarotene + Linsitinib; first compound 2.53 µM) | relative viability (Bexarotene + Linsitinib; first compound 8 µM) |
| --- | --- | --- | --- | --- | --- | --- | --- | --- | --- | --- | --- | --- | --- | --- | --- | --- | --- | --- | --- | --- |
| NCI-H1666 | 0.98 | 0.922 | 0.864 | 0.897 | 0.723 | 0.922 | 0.978 | 0.916 | 0.907 | 0.816 | 0.974 | 0.937 | 0.85 | 0.867 | 0.833 | 0.889 | 0.783 | 0.844 | 0.931 | 0.661 |
| NCI-H1734 | 0.804 | 0.877 | 0.795 | 0.781 | 0.815 | 0.2 | 0.182 | 0.177 | 0.172 | 0.195 | 0.913 | 0.799 | 0.928 | 0.822 | 0.769 | 0.906 | 0.857 | 0.81 | 0.794 | 0.806 |
| NCI-H1755 | 1.04 | 1.05 | 1.02 | 0.993 | 0.993 | 0.391 | 0.504 | 0.679 | 0.52 | 0.438 | 0.934 | 0.953 | 0.885 | 0.937 | 0.852 | 1.05 | 1.1 | 1.08 | 0.992 | 1.02 |
| NCI-H1793 | 0.351 | 0.556 | 0.332 | 0.35 | 0.464 | 0.2 | 0.152 | 0.164 | 0.15 | 0.335 | 0.732 | 0.813 | 0.763 | 0.629 | 0.676 | 1.08 | 0.959 | 1.03 | 0.914 | 0.897 |
| NCI-H1915 | 0.846 | 0.792 | 0.834 | 0.77 | 0.728 | 0.805 | 0.742 | 0.748 | 0.714 | 0.724 | 1.19 | 1.13 | 1.1 | 1.06 | 1.07 | 1.16 | 1.12 | 1.03 | 1.04 | 1.07 |
| NCI-H1944 | 1.03 | 0.97 | 0.945 | 0.972 | 0.986 | 1.45 | 0.977 | 0.959 | 1.11 | 0.875 | 1.25 | 1.09 | 1.04 | 1.16 | 0.965 | 1.5 | 1.36 | 1.4 | 1.41 | 1.19 |
| NCI-H1975 | 1.29 | 1.19 | 1.3 | 1.22 | 1.09 | 0.171 | 0.159 | 0.201 | 0.154 | 0.215 | 1.11 | 0.983 | 1.12 | 1.04 | 1.05 | 1.06 | 1.12 | 1.08 | 1.22 | 1.1 |
| NCI-H1993 | 1.11 | 1.03 | 0.878 | 0.924 | 0.841 | 1.09 | 0.783 | 0.792 | 0.859 | 0.815 | 0.807 | 0.732 | 0.768 | 0.725 | 0.766 | 0.718 | 0.665 | 0.608 | 0.656 | 0.774 |
| NCI-H2009 | 1.24 | 1.28 | 1.23 | 1.17 | 1.19 | 1.19 | 1.18 | 1.12 | 1.2 | 1.02 | 1.33 | 1.34 | 1.24 | 1.29 | 1.19 | 1.33 | 1.36 | 1.13 | 1.18 | 1.13 |
| NCI-H2023 | 0.991 | 0.993 | 0.921 | 0.851 | 0.729 | 0.903 | 0.86 | 0.618 | 0.568 | 0.547 | 0.841 | 0.799 | 0.899 | 0.775 | 0.68 | 0.785 | 0.911 | 0.735 | 0.683 | 0.625 |
| NCI-H2085 | 1.09 | 1.13 | 0.961 | 0.949 | 0.924 | 0.451 | 0.556 | 0.374 | 0.457 | 0.378 | 0.963 | 0.692 | 0.804 | 0.862 | 0.94 | 0.776 | 0.793 | 0.797 | 0.685 | 0.712 |
| NCI-H2087 | 1.11 | 0.944 | 1.1 | 0.848 | 0.759 | 0.174 | 0.169 | 0.175 | 0.139 | 0.142 | 1.3 | 1.1 | 1.12 | 0.982 | 1.03 | 1.01 | 0.963 | 0.89 | 0.896 | 0.827 |
| NCI-H2126 | 0.925 | 0.916 | 0.844 | 0.958 | 0.872 | 0.929 | 0.843 | 0.924 | 0.916 | 0.823 | 0.971 | 1.2 | 1.1 | 1.22 | 1.07 | 0.8 | 0.762 | 0.789 | 0.791 | 0.753 |
| NCI-H2228 | 0.822 | 0.71 | 0.455 | 0.931 | 0.721 | 0.186 | 0.121 | 0.145 | 0.145 | 0.132 | 0.971 | 1.08 | 0.698 | 0.897 | 0.837 | 0.905 | 0.818 | 0.586 | 0.656 | 0.749 |
| NCI-H2347 | 0.971 | 0.846 | 0.63 | 0.793 | 0.783 | 0.507 | 0.255 | – | 0.379 | 0.22 | 0.878 | 0.783 | 0.703 | 0.882 | 1.09 | 1.06 | 1.02 | 0.749 | 0.975 | 1.02 |
| NCI-H2405 | 0.999 | 0.814 | 0.753 | 0.926 | 0.786 | 0.775 | 0.663 | 0.539 | 0.703 | 0.625 | 1.17 | 1.05 | 0.758 | 1.05 | 1.02 | 1.1 | 0.946 | 0.695 | 0.973 | 0.912 |
